In patent US11058700B2, “Macrocyclic lactones and uses thereof as modulators of purinergic receptors” (City of Hope, priority 2015, dated 2021):

Legend:
Type in all cases: cell-based, mouse
4T1.2 cells = experiment: Cytosolic Ca2+ flux
Procedure: Cytosolic Ca^2+ flux. Cancer cells in suspension were washed with PBS and loaded with 1 μM Rhod-3 AM (Life Technologies, R10145) for 30 min at room temperature in the dark. Cells were washed with PBS couple of times and treated with various doses of Ivermectin in R10 medium. Cells were incubated for 15 min to 4 h in 5 ml FACS tubes at 37° C. and 5% CO2, followed by immediate flow cytometry analysis of fluorescence in the PE channel. Chelating of extracellular and intracellular Ca^2+ was performed by supplementing the Ivermectin treatment medium with 1 mM EDTA (USB Corp, 15694) or by adding 20 μM BAPTA-AM (Tocris, 2787) to the Rhod-3 AM loading solution, respectively.

[1] = system: 4T1.2 breast cancer cells; experiment: Flow cytometry of mode of cell death (Annexin V / 7AAD); conditions: Ivermectin-treated breast cancer cells
Procedure: FIGS. 1A-1H. Ivermectin kills breast cancer cells through a mixed apoptotic and necrotic mechanism. FIG. 1A: Mouse (4T1.2) and human (MDA-MB-231) TNBC cells manifest similar sensitivity to Ivermectin. Viability of cells treated with various doses of Ivermectin for 24 h. FIG. 1B: Extended exposure time reduces IC50 values to as low as 2 μM. 4T1.2 cells were seeded at 100 cells/well and individual colonies were counted after a week. Cancer cells were exposed to Ivermectin during the initial 24 h or during the entire duration of the assay. FIG. 1C: MDA-MB-231 breast cancer cells manifest higher sensitivity to Ivermectin compared to normal non-transformed human foreskin fibroblasts (HFFs). FIG. 1D: Flow cytometry analysis showing that cell death proceeds through two distinct pathways: a directly necrotic 7AAD-single positive or Annexin V/PS-single positive apoptotic pathway. FIG. 1E: Kinetics of necrotic versus apoptotic killing of 4T1.2 breast cancer cells. FIG. 1F: Ivermectin-induced cell death can be reversed by inhibition of various controlled cell death pathways. […]
Cell viability. […] Following treatment the plates were washed once with PBS and cell viability was measured using the acid phosphatase assay. […] Absorption at 405 nm was measured within 10 min using a multi-well plate reader. Mode of cell death and viability of cells in suspension was evaluated using flow cytometry. […]

4T1.2 cancer cells = experiment: Synergy between Ivermectin and ROS (CompuSyn CI); conditions: for CompuSyn CI values: 4T1.2, 24 h/48 h
Procedure: FIGS. 2A-2C. Role of NADPH oxidases-generated ROS. […] 4T1.2 cells were labeled with a ROS detection probe and treated for 1 h with 32 μM Ivermectin in the presence of 1 mM EDTA, 5mM NAC, 5 μM DPI, 2500 μunits/ml Apyrase, 3 mM ATP, and 10 μM KN-62. […] Triangles (▴) indicate significant antagonism CI>1.0. […] 4T1.2 cancer cells were irradiated (10-20 kRad) or treated with H2O2 (10-1000 μM), PTX (0.1-1 μM), or DOX (1-4 μM) and incubated with Ivermectin for 24 h/48 h. Circles (●) indicate significant synergy CI<1.0, see Table 1. Asterisk (*) indicates p<0.05 relative to untreated or Ivermectin alone controls, respectively.
Cell viability. Cancer cells were plated on 96 well flat-bottom plates and allowed to attach overnight. Cells were then pre-incubated with drugs for 1 h and treated with Ivermectin for 4 h. In the case of 24 h and 48 h incubations the cells, Ivermectin and drugs were plated together. […] Following treatment the plates were washed once with PBS and cell viability was measured using the acid phosphatase assay. Briefly, cells were incubated for 1h at 37° C. in 100 μL assay buffer (0.16 M sodium acetate, 0.1% Triton-X-100, supplemented with 4-Nitrophenyl phosphate disodium salt hexahydrate, Sigma Aldrich, at 0.00263 g/ml). Reaction was stopped using 10 μL of 1N sodium hydroxide. Absorption at 405 nm was measured within 10 min using a multi-well plate reader. Mode of cell death and viability of cells in suspension was evaluated using flow cytometry. Briefly, cancer cells were pre-incubated with drugs for 30 min to 1 h, as indicated, treated with Ivermectin for 4 h in 5 ml FACS tubes , washed twice in PBS and stained with PE-conjugated Annexin V and 7AAD (1 μl per 100 μl/200,000 cancer cells) for 15 min.

Question: How did the “cytosolic Ca2+” value (4T1.2 cells) turn out when `CC[C@H](C)[C@H]1O[C@]2(CC[C@@H]1C)C[C@@H]1C[C@@H](C/C=C(\C)[C@@H](O[C@H]3C[C@H](OC)[C@@H](O[C@H]4C[C@H](OC)[C@@H](O)[C@H](C)O4)[C@H](C)O3)[C@@H](C)/C=C/C=C3\CO[C@@H]4[C@H](O)C(C)=C[C@@H](C(=O)O1)[C@]34O)O2` [Ivermectin] was run?
Answer: sustained increases in cytosolic Ca^2+

Question: And the “dying cancer cells directly necrotic (7AAD-positive)” value [1]?
Answer: More than 90%

Question: And the “synergy with irradiation, H2O2-generated ROS, doxorubicin and paclitaxel” value (4T1.2 cancer cells; 4T1.2 cells)?
Answer: synergistic

Question: And the “CompuSyn CI values” (4T1.2 cancer cells; kRad 15 + Ivermectin 4)?
Answer: .16

Question: And the “CompuSyn CI values” (4T1.2 cancer cells; kRad 15 + Ivermectin 8)?
Answer: .75

Question: And the “CompuSyn CI values” (4T1.2 cancer cells; kRad 20 + Ivermectin 4)?
Answer: .94

Question: What about the “CompuSyn CI values” (4T1.2 cancer cells; kRad 20 + Ivermectin 8) of the same compound?
Answer: .63
